From US12491172B2, “Treatment of diabetes” (priority 2019, dated 2025)

What was measured:
Assay type in all cases: cell-based, mouse
[1] = tested on: isolated pancreatic islets; assay: Cellular hypoxia in isolated islets (pimonidazole adducts)
Description: For experiments using the hypoxic marker pimonidazole, islets were cultured overnight in RPMI 1640 with 11 mM glucose and fasted for 1 hour in RPMI 1640 with 5.5 mM glucose. Subsequently islets were moved to medium containing 5.5 mM, 11 mM or 22 mM glucose, either with or without the glucokinase activator 10 μM of the glucokinase activator GKA50 (Sigma), 50 μM nifedipine (Sigma) or 100 μM diaxozide (Sigma) as indicated (FIGS. 1A and B). Islets were cultured during 8 hours before lysis. During the last 2 hours pimonidazole (Hypoxyprobe, HPI, Inc) was added to the medium. The hypoxic sample were cultured under 8% O2 during the last 2 hours before the lysis.
Islets were sonicated in RIPA buffer (50 mM Tris-HCl pH7.4, 150 mM NaCl, 1% NP-40, 0.5% Na deoxycholate, 0.1% SDS, 1 mM EDTA, protease inhibitor mix (Complete-Mini, Roche), 0.5 mM phenylmethylsulfonyl fluoride (PMSF) and 0.5 mM dithiothreitol). Lysates were cleared by centrifugation for 30 min at 14.000 r.p.m., and proteins were separated by SDS-PAGE and blotted onto nitrocellulose membranes. […]

HIF-1α = HIF-1α and GLUT1 protein levels in isolated pancreatic islets (immunoblotting); settings: islets treated with GKA50 alone, 20 hours
[2] = tested on: isolated pancreatic islets; assay: Static batch incubation (insulin secretion) of isolated islets
[3] = tested on: isolated pancreatic islets; assay: Measurements of cytoplasmic free Ca2+-concentration in islets
HIF-1α target genes = assay: Gene expression of HIF-1α target genes in isolated islets (RT-qPCR)
[4] = islets treated with GKA50 alone, 20 hours

| SMILES | levels of pimonidazole adducts ([1]; islets treated with GKA50 in the presence of 50 μM nifedipine or 100 μM diaxozide) | HIF-1α stabilization and GLUT1 protein levels (HIF-1α) | basal insulin secretion ([2]; 3.3 mM glucose, after 20 hours treatment and 2 hours fasting) | insulin release at high glucose concentration ([2]; 16.7 mM glucose, after 20 hours treatment) | secretory index ([2]; GKA50-treated islets in absence (1.2) or presence (3.4) of the HIF-1α inhibitor) | insulin content ([2]; islets treated with GKA50 with or without PX-478) | speed of [Ca2+]i response to glucose ([3]; 20 μM GKA50 with or without 50 μM PX-478) | basal [Ca2+]i oscillations ([3]; 3 mM glucose, after 20 hours 20 μM GKA50 with or without 50 μM PX-478 and 2 hours fasting) | Gck mRNA level (HIF-1α target genes; islets treated with GKA50, compared to untreated islets) | gene expression of Glut1, Igfbp3, Hk2, Pgk1 and Pdk1 (HIF-1α target genes; [4]) | mRNA expression of Ldha and Bnip3 (HIF-1α target genes; [4]) | formation of pimonidazole adducts (cellular hypoxia) ([1]; isolated islets, 8 hours, 10 μM GKA50) |
| --- | --- | --- | --- | --- | --- | --- | --- | --- | --- | --- | --- | --- |
| CC1=Nc2ccc(Cl)cc2S(=O)(=O)N1 [diaxozide] | no decrease in levels of pimonidazole adducts |  |  |  |  |  |  |  |  |  |  |  |
| COC[C@H](C)Oc1cc(O[C@@H](C)Cc2ccccc2)cc(C(=O)Nc2ccc(C(=O)O)cn2)c1 [GKA50] |  | led to HIF-1α stabilization and increased GLUT1 protein levels | dose response-dependent increase in basal insulin secretion | without impacting on insulin release at high glucose concentration | 1.2 fold | no impact on insulin content | faster response to glucose | displayed [Ca^2+]i oscillations already under basal low glucose concentration | reduced | Induction | not induced | increase in the formation of pimonidazole adducts |
